The values below come from patent publication US8829028B2, “5-HT4 receptor antagonists for the treatment of heart failure” (Serodus AS, priority 2002, dated 2014).

“And” between values parts separate entries of the source, which are not always exact repeats. Equal values may be shown once. Where a name gives a salt, the structure may show the parent alone.

For test [1], the system named is papillary muscles from Chronic heart failure rats. Nature of the test: Inotropic and lusitropic response of isolated papillary muscles from post-MI Chronic heart failure rats (organ bath, 1 Hz). The class given is cell-based, rat. The following applies: for RT (TR20−TPF), relaxation time / TPF (time to peak force) / TR20 (time to relaxation to 20% level): CHF, serotonin 10 μmol/l, then isoprenaline 100 μmol/l. The protocol: (§1) Male, Wistar rats (Mollegaard Breeding and Research Centre, Skensved, Denmark), weighing about 320 g were intubated and ventilated with 68% N2O, 29% O2 and 2-3% Isofluran (Abbot Laboratories, USA). An extensive myocardial infarction (MI) was induced by a proximal ligation of the left coronary artery. Six weeks later the rats were anaesthetized and ventilated on the respirator with 2.2% Isofluran. Left ventricular pressures were measured (Sjaastad et al., 2000, J. Appl. Physiol, 89: 1445-1454), and Chronic heart failure rats were included in the study if left ventricular end diastolic pressure (LVEDP) was >15 mm Hg. […] The sham-operated animals (SHAM) were subjected to the same surgical procedure but the coronary artery was not ligated.
(§2) Hearts were isolated from the anaesthetized animals (see above) and carefully dissected free of connective tissue and transferred to ice cold 0.9% NaCl and weighed. The aorta was cannulated, and the coronaries were perfused at 31° C. with a relaxing solution containing: (mmol/l) NaCl 118.3; KCl 3.0; CaCl2 0.5; MgSO4 4.0; KH2PO4 2.4; NaHCO3 24.9; glucose 10.0; mannitol 2.2 and equilibrated with 95% O2/5% CO2 at 31° C. (pH 7.4). Posterior left ventricular papillary muscle was ligated
(§3) The muscles were transported to a separate laboratory and mounted in organ baths. […] The papillary muscles were mounted in organ baths containing the relaxing solution and allowed to adapt at 31° C. for about 20 minutes before the solution was changed to one containing the following (in mmol/l): NaCl 119.2; KCJ 3.0; CaCl2 2.0; MgSO4 1.2; KH2PO4 2.4; NaHCO3 24.9; glucose 10.0; mannitol 2.22 and equilibrated with 95% O2/5% CO2 at 31° C. (pH 7.4).
(§4) The muscles were field stimulated with alternating polarity at 1 Hz with impulses of 5 msec duration and current about 20% above individual threshold (10-15 mA, determined in each experiment). The isometrically contracting muscles were stretched to the maximum of their length-tension curve. The force was recorded and analysed as previously described (Skomedal et al., 1997, J. Pharmacol. Exp. Ther. 280: 721-729). The muscles were allowed to equilibrate for 90 minutes. […] Averaged contraction-relaxation cycles (CRC) were calculated for different experimental periods, and these cycles were used to determine descriptive parameters like maximal development of force (dF/dt)max, time to peak force (TPF) and time to relaxation to 20% level (TR2O). Relaxation time (RT) was calculated as TR2O-TPF. (dF/dt)max was used as an index of contractility. Inotropic responses induced by agonists were expressed by increase in (dF/dt)max. RT was used as index of relaxation. Lusitropic responses were expressed as reduction in RT. Mechanical response at the end of the equilibrium period was used as the control response.
(§5) Agonist was added cumulatively or as a single bolus directly to the organ baths and was completely mixed in the solution within 2-3 seconds. […] The different agonists were added directly to the organ baths in increasing concentrations until supramaximal concentrations of agonist were obtained with respect to maximal inotropic response.
(§6) The responses for each concentration of agonist were generally calculated as percent of maximal response. The concentration-response curves constructed from papillary muscle experiment were constructed according to Ariens and Simonis (1964, supra), by estimating centiles (EC10 to EC100) for each single experiment and calculating the corresponding means. This calculation provides mean curves that express the response as fractional response or percent of maximum and display horizontal positioning and the correct mean slope of the curves. The horizontal positioning of the concentration-response curves was expressed as pEC50-values (=−log EC50).

In test [2] the target is T1, 5-HT4 receptor (Rattus norvegicus, UniProt Q62758).
T1 construct: The papillary muscles were mounted in organ baths; from tissue; host or cells: rat posterior left ventricular papillary muscle (post-MI or aortic-banding heart failure)
T1 sequence (Q62758 whole entry): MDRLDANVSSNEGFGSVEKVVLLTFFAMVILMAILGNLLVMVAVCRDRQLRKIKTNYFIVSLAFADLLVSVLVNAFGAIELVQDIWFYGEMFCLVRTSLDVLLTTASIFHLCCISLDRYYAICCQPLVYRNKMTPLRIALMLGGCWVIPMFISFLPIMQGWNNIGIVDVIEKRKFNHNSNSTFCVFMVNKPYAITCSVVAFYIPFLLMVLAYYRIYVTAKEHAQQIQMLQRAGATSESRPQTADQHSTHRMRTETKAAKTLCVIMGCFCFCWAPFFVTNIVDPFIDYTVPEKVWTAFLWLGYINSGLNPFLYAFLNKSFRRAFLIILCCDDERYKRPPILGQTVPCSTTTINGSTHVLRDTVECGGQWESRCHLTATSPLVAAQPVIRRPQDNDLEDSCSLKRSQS
In words: Antagonism of the serotonin inotropic response by 5-HT4 antagonists in post-MI rat papillary muscle (reversal, curve shift, Schild Kb). In kind it is cell-based. The settings on record: for block of the inotropic response to serotonin: each antagonist added as printed. How it is done:
as §4, §5
as §6, with “EC50). Data are expressed as mean±standard error of the mean (SEM) and the number of animals expressed as n. The significance levels of differences were calculated according to Students t-test. P<0.05 is considered statistically significant. The inhibition constants Kb were calculated from the Schild equation, based on the relative shifts of the concentration-response curves for receptor stimulation.” for “EC50).”

The test system of test [3] is post-infarction congestive heart failure (CHF) rats. Nature of the test: Six-week treatment of post-infarction CHF rats with a 5-HT4 antagonist, papillary muscle function afterwards. The class given is in vivo, rat. The settings on record: 50 mM SB207266 in s.c. miniosmotic pumps, six weeks. The source says:
An extensive myocardial infarction (MI) was induced in 320 g male Wistar rats under anaesthesia (68% N2O, 29% O2 and 2-3% Isofluran) by a proximal ligation of the left coronary artery (Sjaastad et al. 2003, supra). Three days later, rats were included in the study if the rats had both clinical signs of congestive heart failure (tachypnoe and forced ventilation) and a large myocardial infarction as verified by echocardiography. Rats included in the study were randomized blindly to placebo or treatment. […]
After six weeks of treatment, the animals were again placed under Isofluran anaesthesia (68% N2O, 29% O2 and 2-3% Isofluran) with temperature control for echocardiographic and hemodynamic measurements, followed by euthanasia. Posterior left ventricular papillary muscles were then prepared, mounted in organ baths, equilibrated and field stimulated at 1 Hz (Sjaastad et al., 2003 supra) and the contraction-relaxation cycles (CRCs) were recorded and analysed as previously described with respect to maximal developed force (Fmax), maximal development of force (dF/dt)max, time to peak force (TPF), time to relaxation to 20% level (TR20) and relaxation time (RT=TR20-TPF). […]

In test [4] the test system is papillary muscles from MInf rats. In words: Inotropic response to serotonin in papillary muscles from MInf rats (infarction without CHF). The class given is cell-based, rat. The settings on record: serotonin 10 μM. The source says:
The magnitude of the response correlated positively with infarction size up to 30-40% of the inner myocardial surface in MInf animals (FIG. 8A). In MInf hearts with infarct size 30-40% the inotropic effect was of the same magnitude as in CHF hearts which all had infarct size >40%. A positive correlation with infarction size was also observed for 5-HT4(b) and ANP mRNA expression, whereas 5-HT2A mRNA levels were unchanged (FIG. 8B).

The target of test [5] is T1, 5-HT4 receptor. In words: 5-HT4 receptor-mediated inotropic response in papillary muscle of CHF rat 6 weeks after aortic banding. The following applies: serotonin 10 μM; prazosin, timolol, atropine 1 μM each. In kind it is cell-based.
Description: Trans-aortic constriction (aortic banding) of the ascending aorta was induced in 200 g male Wistar rats under anaesthesia, induced by 63% N2O, 32% O2 and 5% Isoflurane and maintained by 66% N2O, 33% O2 and 1-2% Isoflurane. A right-sided thoracotomi was performed through a 3-4 cm long cutaneous incision, the pericardium was opened and the ascending aorta identified and dissected free of surrounding tissue. A ligature was knit around the ascending aorta and a metal probe with diameter 0.9 mm. The metal probe was then removed. The result was a constriction of the ascending aorta with internal diameter about 0.9 mm. The thorax was then closed with 3-0 silk sutures and the skin closed with Dexon 1 sutures. […]
Papillary muscle was extracted from a CHF rat 6 weeks after aortic banding as described above. osterior left ventricular papillary muscle was prepared, mounted in organ bath, equilibrated and field stimulated at 1 Hz (Sjaastad et al. 2003 supra), and the contraction-relaxation cycles (CRCs) were recorded and analysed as previously described (Skomedal et al. 1997, J. Pharmacol Exp Ther 280: 721-729) (Sjaastad et al., 2003, supra) with respect to maximal developed force (Fmax), maximal development of force (dF/dt)max, time to peak force (TPF), time to relaxation to 20% level (TR20) and relaxation time (RT=TR20-TPF).
Test [6] concerns papillary muscles from sham-operated rats. In words: Inotropic and lusitropic response of isolated papillary muscles from sham-operated rats. The settings on record: for RT (TR20−TPF), relaxation time / TPF (time to peak force) / TR20 (time to relaxation to 20% level): Sham, N=6, serotonin 10 μmol/l, then isoprenaline 100 μmol/l. The class given is cell-based, rat. How it is done: as §1, §2, §3, §4, §5, §6

Test [7] concerns 5-HT2A receptor (Rattus norvegicus). The settings on record: ketanserin 0.1 μmol/l. The protocol: as §4, with “RT was used as index of relaxation.” left out, “Mechanical response at the end of the equilibrium period was used as the control response.” left out
5-HT2A receptor (Rattus norvegicus), sequence (Q62758 whole entry): as above
The responses for each concentration of agonist were generally calculated as percent of maximal response. […] The horizontal positioning of the concentration-response curves was expressed as pEC50-values (=−log EC50). Data are expressed as mean±standard error of the mean (SEM) and the number of animals expressed as n. The significance levels of differences were calculated according to Students t-test. […]

Usually pKb stands for −log10 of the Kb, conventionally taken in molar units.

`CN1[C@@H]2CC[C@H]1CC(OC(=O)C(CO)c1ccccc1)C2.CN1[C@@H]2CC[C@H]1CC(OC(=O)C(CO)c1ccccc1)C2.O=S(=O)(O)O` (stereo partly shown) [Atropine, atropine sulfate]: the “inotropic response to serotonin restored by atropine” value in test [1] (1 μmol/l atropine after serotonin and carbachol, p>0.06 vs serotonin alone) is 45.1±5.1%. The “effect on serotonin-induced changes of TPF, TR2O and RT (contraction-relaxation cycle characteristics)” value in test [1] (cumulative 10 μmol/l serotonin, 30 μmol/l carbachol, 1 μmol/l atropine) is reported as “re-established the contraction-relaxation cycle characteristics”.

In the case of `O=C(OCCN1CCCCC1)c1c[nH]c2ccccc12` [SB203186, 1-piperidinyl-ethyl-1H-indole-3-carboxylate], the pKb at 5-HT4 receptor [2] (6 week post MI rats, 5 nM antagonist) was determined as 9.1. The “block of the inotropic response to serotonin” value at 5-HT4 receptor [2] (6 week post MI rats) is listed as “block the inotropic response to serotonin”.

As to `C[N+](C)(C)CCOC(N)=O` [Carbachol, carbamylcholine], the “inotropic response to serotonin after carbachol (reversal)” value in test [1] (30 μmol/l carbachol added after 10 μmol/l serotonin, p<0.01) is 4.8±6.5%.

In the case of `CCCCN1CCC(CNC(=O)c2c3n(c4ccccc24)CCCO3)CC1` [SB207266, N-[(1-butyl-4-piperidinyl)methyl]-3,4-dihydro-2H-[1,3]oxazino[3,2-a]indole-locarboxamide hydrochloride], the “maximal inotropic response to β-adrenoceptor stimulation (myocardial function)” value in test [3] (vs placebo) was “trend towards normalisation”. The “duration of the contraction-relaxation cycle” value in test [3] (preliminary data, not shown) is listed as “trend towards normalisation”.

As to `Cl.NCCc1c[nH]c2ccc(O)cc12` [serotonin, 5-hydroxytryptamine hydrochloride], at 5-HT4 receptor [2] (pooled average with and without GR113808, SEM, n=12), the “maximum inotropic response induced by serotonin” value came to 18.7±2.4%. Further, the “inotropic response to serotonin” value in test [4] was “elicited an inotropic response qualitatively similar to the response observed in CHF animals”; at 5-HT4 receptor [5] it was “positive inotropic response comparable in magnitude and characteristics to the positive inotropic response to 100 μM isoproterenol”. Also, the “positive inotropic response to serotonin” value in test [6] (10 μmol/l serotonin, sham-operated animals, n=6) was “not seen in sham-operated animals”. Also, in test [1] (10 μmol/l serotonin, SEM, n=10), the “increase in contractile force” value is 44.5±2.9%. In test [1] (10 μmol/l serotonin, carbachol experiment, mean±SEM, n=5), the “positive inotropic response above control level” value is 33.7±6.6%. In addition, in test [1] (10 μmol/l serotonin, prazosin, atropine and timolol present), the “time from addition of serotonin to maximal inotropic response” value lay in the range of 1 to 2 min.

As to `O=C(c1ccc(F)cc1)C1CCN(CCn2c(=O)[nH]c3ccccc3c2=O)CC1` [Ketanserin, 3-[2-[4-(4-fluorobenzoyl)-1-piperidinyl]ethyl]-2,4(1H,3H)-quinazolinedione], the “shift of the concentration-response curve for serotonin” value in test [7] is recorded as “did not shift”.

Take `COc1cc(COc2cc(N)c(Cl)cc2C(=O)CCC2CCN(CCNS(C)(=O)=O)CC2)cc(OC)c1` [RS39604, 1-[4-amino-5-chloro-2-(3,5-dimethoxybenzyloxy)phenyl]-3 [1-[2-[(methylsulf-onyl)amino]ethyl]-4-piperidinyl]-1-propanone hydrochloride]: on 5-HT4 receptor [2] (6 week post MI rats, 5 nM antagonist, read-out: pKb (converted)), the Kb was 0.631 nM. Besides, the “block of the inotropic response to serotonin” value on 5-HT4 receptor [2] (6 week post MI rats) is “block the inotropic response to serotonin”.

As to `CC(C)NC[C@H](O)c1ccc(O)c(O)c1` [isoprenaline, (−)-isoprenaline hemisulphate], the “RT (TR20−TPF), relaxation time” value in test [6] (listed as ISO) is 75.0 ± 2.5 ms; in test [6] (listed as Iso) it was 69.4 ± 3.2 % of control; in test [1] (n=10, listed as ISO) it was 81.0 ± 1.8 ms; in test [1] (n=10, listed as Iso), 76.2 ± 1.8 % of control. Besides, the “TPF (time to peak force)” value is recorded as 109.3 ± 2.7 ms in test [6] (listed as ISO); 87.4 ± 2.3 % of control in test [6] (listed as Iso); 123.1 ± 1.6 ms in test [1] (n=10, listed as ISO); 83.2 ± 1.7 % of control in test [1] (n=10, listed as Iso). For the same compound, the “TR20 (time to relaxation to 20% level)” value in test [6] (listed as ISO) is given as 174.0 ± 4.9 ms; in test [6] (listed as Iso), 74.5 ± 1.7 % of control; in test [1] (n=10, listed as ISO) it was 204.1 ± 2.9 ms; in test [1] (n=10, listed as Iso) it was 80.3 ± 1.9 % of control. The compound also showed a positive inotropic response in test [6] (isoprenaline, sham-operated animals, mean±SEM, n=6) of 111.6±8.6%. In test [1] (10 μmol/l isoprenaline as printed, SEM, n=10), the “inotropic effect (increase in contractile force)” value was 60.4±5.8% and 58.5±7%.
